The results in this text go back to US8592456B2 (4SC Discovery GmbH, priority 2011, dated 2013).

Each structure is given as a SMILES string. A value given as a limit tells only on which side of the number the result lay.

This test has as its system PBMC (T cell proliferation). Briefly: T cell proliferation assay, PHA-stimulated human PBMC (BrdU ELISA). The settings on record: human PBMC, 2 μg/ml PHA, 48 hours, BrdU; read-out: D: IC50 (Tcell proliferation). It counts as cell-based. In a few lines:
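Healthy-donor human PBMC, Ficoll-isolated, seeded 1×10^5 cells/well in RPMI1640 with 10% dialyzed FCS, stimulated with 2 μg/ml PHA alongside test compound. Proliferation read after 48 hours by BrdU ELISA.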
For orientation: Incorporation of labelled thymidine or its analogues reports DNA synthesis.

As to `Fc1ccc(-n2ncc(-c3onc(-c4c(F)cccc4Cl)c3Br)c2C(F)(F)F)c(F)c1` [Example B-24, 4-bromo-3-(2-chloro-6-fluorophenyl)-5-(1-(2,4-difluorophenyl)-5-(trifluoromethyl)-1H-pyrazol-4-yl)isoxazole], the IC50 was 1000 to 10000 nM. The same measure for `Fc1ccccc1-n1ncc(-c2onc(-c3c(F)cccc3Cl)c2Br)c1C(F)(F)F` [Example B-26, 4-bromo-3-(2-chloro-6-fluorophenyl)-5-(1-(2-fluorophenyl)-5-(trifluoromethyl)-1H-pyrazol-4-yl)isoxazole]: 1000 to 10000 nM; for `Fc1cc(F)cc(-n2ncc(-c3onc(-c4c(F)cccc4Cl)c3Br)c2C(F)(F)F)c1` [Example B-27, 4-bromo-3-(2-chloro-6-fluorophenyl)-5-(1-(3,5-difluorophenyl)-5-(trifluoromethyl)-1H-pyrazol-4-yl)isoxazole]: 100 to 1000 nM. The same measure for `Fc1ccc(-n2ncc(-c3onc(-c4c(F)cccc4Cl)c3Br)c2C(F)(F)F)cc1` [Example B-28, 4-bromo-3-(2-chloro-6-fluorophenyl)-5-(1-(4-fluorophenyl)-5-(trifluoromethyl)-1H-pyrazol-4-yl)isoxazole]: 100 to 1000 nM; for `CC(C)=NNC(=O)c1c(-c2c(F)cccc2Cl)noc1-c1cnn(-c2cccc(F)c2)c1` [Example B-29, 3-(2-chloro-6-fluorophenyl)-5-(1-(3-fluorophenyl)-1H-pyrazol-4-yl)-N′-(propan-2-ylidene)isoxazole-4-carbohydrazide]: 1000 to 10000 nM. The same measure for `COC(=O)c1c(-c2ccccc2)noc1-c1cnn(-c2cccc(Cl)c2)c1C(F)(F)F` [Example B-30, methyl 5-(1-(3-chlorophenyl)-5-(trifluoromethyl)-1H-pyrazol-4-yl)-3-phenylisoxazole-4-carboxylate]: 100 to 1000 nM. For the compound `CC(C)OC(=O)c1c(-c2c(F)cccc2Cl)noc1-c1cnn(-c2cccc(Cl)c2)c1C(F)(F)F` [Example B-31, isopropyl 3-(2-chloro-6-fluorophenyl)-5-(1-(3-chlorophenyl)-5-(trifluoromethyl)-1H-pyrazol-4-yl)isoxazole-4-carboxylate], the IC50 is below 10 nM. The same measure for `CCOC(=O)c1c(-c2c(F)cccc2Cl)noc1-c1cnn(-c2cccc(C#N)c2)c1C(F)(F)F` [Example B-32, ethyl 3-(2-chloro-6-fluorophenyl)-5-(1-(3-cyanophenyl)-5-(trifluoromethyl)-1H-pyrazol-4-yl)isoxazole-4-carboxylate]: 10 to 100 nM.

With `CN1CCN(C(=O)c2c(-c3c(F)cccc3Cl)noc2-c2cnn(-c3cccc(Cl)c3)c2C(F)(F)F)CC1` [Example B-34, (3-(2-chloro-6-fluorophenyl)-5-(1-(3-chlorophenyl)-5-(trifluoromethyl)-1H-pyrazol-4-yl)-isoxazol-4-yl)(4-methylpiperazin-1-yl)methanone], the IC50 was 100 to 1000 nM. Next, `O=C(c1c(-c2c(F)cccc2Cl)noc1-c1cnn(-c2cccc(Cl)c2)c1C(F)(F)F)N1CCOCC1` [Example B-35, (3-(2-chloro-6-fluorophenyl)-5-(1-(3-chlorophenyl)-5-(trifluoromethyl)-1H-pyrazol-4-yl)isoxazol-4-yl)(morpholino)methanone]: 1000 to 10000 nM. Next, `Nc1c(-c2c(F)cccc2Cl)noc1-c1cnn(-c2cccc(Cl)c2)c1C(F)(F)F` [Example B-36, 3-(2-chloro-6-fluorophenyl)-5-(1-(3-chlorophenyl)-5-(trifluoromethyl)-1H-pyrazol-4-yl)isoxazol-4-amine]: 100 to 1000 nM; `CCOC(=O)c1c(-c2c(F)cccc2Cl)noc1-c1cnn(-c2cccnc2)c1C(F)(F)F` [Example B-37, ethyl 3-(2-chloro-6-fluorophenyl)-5-(1-(pyridin-3-yl)-5-(trifluoromethyl)-1H-pyrazol-4-yl)-isoxazole-4-carboxylate]: below 10 nM; `CCOC(=O)c1c(-c2c(F)cccc2Cl)noc1-c1cnn(-c2ccncc2)c1C(F)(F)F` [Example B-38, ethyl 3-(2-chloro-6-fluorophenyl)-5-(1-(pyridin-4-yl)-5-(trifluoromethyl)-1H-pyrazol-4-yl)-isoxazole-4-carboxylate]: below 10 nM. The same measure for `CC(=O)Nc1c(-c2c(F)cccc2Cl)noc1-c1cnn(-c2cccc(Cl)c2)c1C(F)(F)F` [Example B-39, N-(3-(2-chloro-6-fluorophenyl)-5-(1-(3-chlorophenyl)-5-(trifluoromethyl)-1H-pyrazol-4-yl)-isoxazol-4-yl)acetamide]: 1000 to 10000 nM; for `CCOC(=O)c1c(-c2c(F)cccc2Cl)noc1-c1cnn(-c2ccc(C#N)cc2)c1C(F)(F)F` [Example B-40, ethyl 3-(2-chloro-6-fluorophenyl)-5-(1-(4-cyanophenyl)-5-(trifluoromethyl)-1H-pyrazol-4-yl)-isoxazole-4-carboxylate]: 1000 to 10000 nM; for `CCOC(=O)c1c(-c2ccccc2Cl)noc1-c1cnn(-c2cccc(Cl)c2)c1C(F)(F)F` [Example B-41, ethyl 3-(2-chlorophenyl)-5-(1-(3-chlorophenyl)-5-(trifluoromethyl)-1H-pyrazol-4-yl)-isoxazole-4-carboxylate]: 10 to 100 nM. Turning to `O=C(O)c1c(-c2ccccc2Cl)noc1-c1cnn(-c2cccc(Cl)c2)c1C(F)(F)F` [Example B-42, 3-(2-chlorophenyl)-5-(1-(3-chlorophenyl)-5-(trifluoromethyl)-1H-pyrazol-4-yl)-isoxazole-4-carboxylic acid], the IC50 lay in the range of 1000 to 10000 nM. With `CCOC(=O)c1c(-c2c(F)cccc2Cl)noc1-c1cnn(-c2cccc(S(N)(=O)=O)c2)c1C(F)(F)F` [Example B-43, ethyl 3-(2-chloro-6-fluorophenyl)-5-(1-(3-sulfamoylphenyl)-5-(trifluoromethyl)-1H-pyrazol-4-yl)-isoxazole-4-carboxylate], the IC50 was 1000 to 10000 nM. The same measure for `CCOC(=O)c1c(-c2c(F)cccc2Cl)noc1-c1cnn(-c2ccccc2C#N)c1C(F)(F)F` [Example B-44, ethyl 3-(2-chloro-6-fluorophenyl)-5-(1-(2-cyanophenyl)-5-(trifluoromethyl)-1H-pyrazol-4-yl)-isoxazole-4-carboxylate]: 1000 to 10000 nM; for `CCOC(=O)c1c(-c2c(Cl)cccc2Cl)noc1-c1cnn(-c2cccc(Cl)c2)c1C(F)(F)F` [Example B-45, ethyl 5-(1-(3-chlorophenyl)-5-(trifluoromethyl)-1H-pyrazol-4-yl)-3-(2,6-dichlorophenyl)-isoxazole-4-carboxylate]: below 10 nM.

On to `CCOC(=O)c1c(-c2ccc(Cl)cc2Cl)noc1-c1cnn(-c2cccc(Cl)c2)c1C(F)(F)F` [Example B-46, ethyl 5-(1-(3-chlorophenyl)-5-(trifluoromethyl)-1H-pyrazol-4-yl)-3-(2,4-dichlorophenyl)-isoxazole-4-carboxylate], for which the IC50 lay in the range of 100 to 1000 nM. The same measure for `CCOC(=O)c1c(-c2ccccc2F)noc1-c1cnn(-c2cccc(Cl)c2)c1C(F)(F)F` [Example B-47, ethyl 5-(1-(3-chlorophenyl)-5-(trifluoromethyl)-1H-pyrazol-4-yl)-3-(2-fluorophenyl)isoxazole-4-carboxylate]: 10 to 100 nM; for `O=CNc1c(-c2c(F)cccc2Cl)noc1-c1cnn(-c2cccc(Cl)c2)c1C(F)(F)F` [Example B-48, N-(3-(2-chloro-6-fluorophenyl)-5-(1-(3-chlorophenyl)-5-(trifluoromethyl)-1H-pyrazol-4-yl)isoxazol-4-yl)formamide]: 1000 to 10000 nM. The same measure for `O=C(c1c(-c2c(F)cccc2Cl)noc1-c1cnn(-c2ccccc2Cl)c1C(F)(F)F)N1CCCO1` [Example B-49, (3-(2-chloro-6-fluorophenyl)-5-(1-(2-chlorophenyl)-5-(trifluoromethyl)-1H-pyrazol-4-yl)isozazol-4-yl)(isoxazolidin-2-yl)methanone]: 1000 to 10000 nM. Next, `CON(C)C(=O)c1c(-c2c(F)cccc2Cl)noc1-c1cnn(-c2ccccc2Cl)c1C(F)(F)F` [Example B-51, 3-(2-chloro-6-fluorophenyl)-5-(1-(2-chlorophenyl)-5-(trifluoromethyl)-1H-pyrazol-4-yl)-N-methoxy-N-methylisoxazole-4-carboxamide]: 1000 to 10000 nM.

Regarding `O=C(c1c(-c2c(F)cccc2Cl)noc1-c1cnn(-c2ccccc2F)c1C(F)(F)F)N1CCCO1` [Example B-52, (3-(2-chloro-6-fluorophenyl)-5-(1-(2-fluorophenyl)-5-(trifluoromethyl)-1H-pyrazol-4-yl)isoxazol-4-yl)(isoxazolidin-2-yl)methanone], the IC50 is 1000 to 10000 nM. Next, `CON(C)C(=O)c1c(-c2c(F)cccc2Cl)noc1-c1cnn(-c2ccccc2F)c1C(F)(F)F` [Example B-53, 3-(2-chloro-6-fluorophenyl)-5-(1-(2-fluorophenyl)-5-(trifluoromethyl)-1H-pyrazol-4-yl)-N-methoxy-N-methylisoxazole-4-carboxamide]: 100 to 1000 nM.

Regarding `O=C(c1c(-c2c(F)cccc2Cl)noc1-c1cnn(-c2cccnc2)c1C(F)(F)F)N1CCCO1` [Example B-54, (3-(2-chloro-6-fluorophenyl)-5-(1-(pyridin-3-yl)-5-(trifluoromethyl)-1H-pyrazol-4-yl)isoxazol-4-yl)(isoxazolidin-2-yl)methanone], the IC50 was 1000 to 10000 nM.

Regarding `CNC(=O)c1c(-c2c(F)cccc2Cl)noc1-c1cnn(-c2cccnc2)c1C(F)(F)F` [Example B-55, 3-(2-chloro-6-fluorophenyl)-N-methyl-5-(1-(pyridin-3-yl)-5-(trifluoromethyl)-1H-pyrazol-4-yl)isoxazole-4-carboxamide], the IC50 lay in the range of 1000 to 10000 nM. Next, `CON(C)C(=O)c1c(-c2c(F)cccc2Cl)noc1-c1cnn(-c2cccnc2)c1C(F)(F)F` [Example B-56, 3-(2-chloro-6-fluorophenyl)-N-methoxy-N-methyl-5-(1-(pyridin-3-yl)-5-(trifluoromethyl)-1H-pyrazol-4-yl)isoxazole-4-carboxamide]: 1000 to 10000 nM.
